Laboratory results reported in patent US5468756A, “Imidazonaphthyridine derivatives” (Kyowa Hakko Kogyo Co., Ltd., priority 1990, dated 1995).

Key:
[1] = tested on: platelet activating factor (PAF)-induced mortality; test: Inhibition effect on platelet activating factor (PAF)-induced mortality; format: in vivo, male dd mice; settings: Mus musculus, po, PAF 40 μg/kg i.v., 3 h, read-out: Survival rate of test compound-administered group; for responders at 100 mg/kg: n = 10, control group survival 0-20%; for responders at 50 mg/kg: 50 mg/kg p.o., n = 10, control group survival 0%
Description: e) Inhibition effect on platelet activating factor (PAF)-induced mortality
The experiment was carried out by a minor modification of a known method [Br. J. Pharmacol., 79, 595 (1983)]. Groups each consisting of 10 male dd mice (weighing 28 to 32 g) were used, and 50 or 100 mg/kg of the test compound or a saline (control) was orally administered. One hour after the administration of test compound, 40 μg/kg of PAF (manufactured by Avanti Polar Lipids Co., Ltd.) was intravenously administered. Three hours after PAF injection, the mortality of the animals was observed.

ddY strain male mice = test: Acute toxicity (Minimum Lethal Dose); format: in vivo
Description: The test compound was orally and intraperitoneally administered to ddY strain male mice weighing 20 to 25 g. MLD (Minimum Lethal Dose) was determined by observing the mortality for […] after the administration.

[2] = tested on: carrageenin-induced paw edema; test: Effect on carrageenin-induced paw edema; format: in vivo, male Wistar rats; settings: Rattus norvegicus, 3 hours after carrageenin, read-out: Suppression rate for paw swelling, carrageenin-induced edema; for inhibition in vivo at 100 mg/kg: p.o.; for inhibition in vivo at 50 mg/kg: po, 50 mg/kg P.O.
Description: a) Effect on carrageenin-induced paw edema
(§1) Male Wistar rats weighing 150 to 160 g (n=3-5) were used in the experiment. After the right hind paw volume was measured with the plethysmograph (TK-101; Unicom Co., Ltd.), the test compound (25, 50 or 100 mg/kg) was orally administered. After one hour, 0.1 ml of 1% carrageenin (λ-carrageenin; PICNIN-A®, Zushi Kagaku Co., Ltd.) was subcutaneously injected into the right hind paw footpad. Three hours after the injection of carrageenin, the right hind paw volume was measured and the swelling rate was determined by the following equation 1. [formula] Vt: the right hind paw volume measured 3 hours after the injection of carrageenin
(§2) Vo: the right hind paw volume measured prior to the injection of carrageenin
(§3) The suppression rate was calculated by the following equation 2. [formula] Swt: the swelling rate of the group administered with the test compound Swc: the swelling rate of the control group administered with physiological saline solution

[3] = tested on: passive Schultz-Dale reaction; test: Effect on passive Schultz-Dale reaction (broncho-dilative activity), sensitized tracheal strips contracted by antigen; parameters: species or system male Hartley guinea pigs; settings: guinea pig tracheal zig-zag strips, 37° C., antigen egg white albumin 1 μg/ml; read-out: Passive Schultz-Dale reaction IC50 (concentration of 50% relaxation rate)
Description: d) Effect on passive Schultz-Dale reaction (broncho-dilative activity)
Male Hartley guinea pigs weighing 350 to 500 g were passively sensitized by intraperitoneal injection of rabbit anti-OA serum prepared in advance by the method of Koda et al. [Folia Pharmacol., Japon 66, 237, (1970)]. After 24 hours, the guinea pigs were stunned and exsanguinated, and then tracheae were removed. The zig-zag strips of the tracheae were prepared by the method of Emmerson and Mackay [J. Pharm. Pharmacol., 31, 798, (1979)]. The strips were suspended in Krebs-Henseleit solution at 37° C. under aeration of a mixed gas of 95% oxygen and 5% carbon dioxide, and equilibrated for one hour. Then, antigen (egg white albumin) was introduced in the solution (final concentration; 1 μg/ml), and the contraction was measured by isotonictransducer (TD-112s, made by Nihon Kohden K.K., Japan) and recorded on a recorder (Type 3066, made by Yokogawa-Hokushin Denki, K.K. Japan). After the contraction curves reached a plateau, the test compounds were successively added in order to get cumulative concentration-relaxation curves. The concentration of 50% relaxation rate (IC50) was calculated from the regression line, which was obtained from the cumulative concentration-relaxation curves.

[4] = tested on: zymosan-induced paw edema; test: Effect on zymosan-induced paw edema; format: in vivo, male Wistar rats; settings: Rattus norvegicus, po, read-out: Suppression rate for paw swelling, zymosan-induced edema; for inhibition in vivo at 25 mg/kg: 25 mg/kg P.O.
Description: as §1, §2, §3
b) Effect on zymosan-induced paw edema
The experiment was carried out in the same manner as in the carrageenin-induced paw edema test except that 1% zymosan (Zymosan A®; Sigma Chemical Co.) was used in place of 1% carrageenin and the right hind paw volume was measured […] the injection of the edema-inducing substance instead of 3 hours. The swelling rate and the suppression rate were calculated by equation 1 and equation 2, respectively.

Compound | responders at 100 mg/kg [1] [%] | MLD (Minimum Lethal Dose) i.p. (ddY strain male mice) [mg/kg] | MLD (Minimum Lethal Dose) p.o. (ddY strain male mice) [mg/kg] | inhibition in vivo at 100 mg/kg [2] [%] | IC50 [3] [µM] | inhibition in vivo at 25 mg/kg [4] [%] | inhibition in vivo at 100 mg/kg [4] [%] | inhibition in vivo at 50 mg/kg [2] [%] | responders at 50 mg/kg [1] [%]
CC(c1ccccc1)n1cnc2c3cccnc3n(-c3ccccc3)c(=O)c21 (stereo not drawn) [Compound 16, 3-(α-Methyl)benzyl-5-phenyl-3H-imidazo[4,5-c][1,8]naphthyridin-4(5H)-one] | 0 | > 100 | > 300 | 3.5 | > 10 |  |  |  | 
O=C(O)Cn1cnc2c3cccnc3n(-c3ccccc3)c(=O)c21 [Compound 17, 3-Carboxymethyl-5-phenyl-3H-imidazo[4,5-c][1,8]naphthyridin-4(5H)-one] | 30 | > 100 | > 300 | 10.8 | > 10 |  |  |  | 
Cc1nc2c([nH]1)c(=O)n(-c1ccccc1)c1ncccc21 [Compound 18, 2-Methyl-5-phenyl-3H-imidazo[4,5-c][1,8]naphthyridin-4(5H)-one] | 90 |  |  | 23.7 | > 10 | 26.7 |  |  | 
O=c1c2[nH]c(O)nc2c2cccnc2n1-c1ccccc1 [Compound 21, 2-Hydroxy-5-phenyl-3H-imidazo[4,5-c][1,8]naphthyridin-4(5H)-one] | 30 | > 100 | > 300 | 2.3 | 2 |  |  |  | 
COc1ccc(-n2c(=O)c3[nH]cnc3c3cccnc32)cc1 [Compound 22, 5-(4-Methoxy)phenyl-3H-imidazo[4,5-c][1,8]naphthyridin-4(5H)-one] | 30 |  |  | 1.9 | > 10 |  | 0 |  | 
COc1cccc(-n2c(=O)c3[nH]cnc3c3cccnc32)c1 [Compound 23, 5-(3-Methoxy)phenyl-3H-imidazo[4,5-c][1,8]naphthyridin-4(5H)-one] | 10 |  |  | 0 | > 10 | 18.1 |  |  | 
Cc1ccc(-n2c(=O)c3[nH]cnc3c3cccnc32)cc1 [Compound 24, 5-(4-Methyl)phenyl-3H-imidazo[4,5-c][1,8]naphthyridin-4(5H)-one] | 40 |  |  |  | > 10 |  |  | 0.3 | 
Cc1cccc(-n2c(=O)c3[nH]cnc3c3cccnc32)c1 [Compound 25, 5-(3-Methyl)phenyl-3H-imidazo[4,5-c][1,8]naphthyridin-4(5H)-one] | 60 |  |  | 13.8 | > 10 |  |  |  | 
O=c1c2[nH]cnc2c2cccnc2n1-c1cccc(Cl)c1 [Compound 26, 5-(3-Chloro)phenyl-3H-imidazo[4,5-c][1,8]naphthyridin-4(5H)-one] | 90 |  |  | 15.2 | > 10 |  |  |  | 
CCCCn1c(=O)c2[nH]cnc2c2cccnc21 [Compound 27, 5-n-Butyl-3H-imidazo[4,5-c][1,8]naphthyridin-4(5H)-one] | 60 |  |  | 8.6 | > 10 |  |  |  | 
CCCCn1c(=O)c2c(ncn2C)c2cccnc21 [Compound 28, 5-n-Butyl-3-methyl-3H-imidazo[4,5-c][1,8]naphthyridin-4(5H)-one] | 70 |  |  | 20.6 | 4.5 | 26.7 |  |  | 
CCCCCCn1cnc2c3cccnc3n(-c3ccccc3)c(=O)c21 [Compound 30, 3-Hexyl-5-phenyl-3H-imidazo[4,5-c][1,8]naphthyridin-4(5H)-one] | 90 | > 100 | > 300 | 48.5 |  | 33.5 |  |  | 
O=c1c2c(ncn2CC2CCCCC2)c2cccnc2n1-c1ccccc1 [Compound 37, 3-Cyclohexylmethyl-5-phenyl-3H-imidazo[4,5-c][1,8]naphthyridin-4(5H)-one] | 90 |  |  |  | 6.2 | 49.8 |  | 34.7 | 
O=c1c2c(ncn2Cc2ccc(Cl)cc2)c2cccnc2n1-c1ccccc1 [Compound 40, 3-(4-Chlorophenyl)methyl-5-phenyl-3H-imidazo[4,5-c][1,8]naphthyridin-4(5H)-one] | 40 |  |  | 21.3 |  | 42.8 |  |  | 
Cc1cccc(Cn2cnc3c4cccnc4n(-c4ccccc4)c(=O)c32)c1 [Compound 41, 3-(3-Methylphenyl)methyl-5-phenyl-3H-imidazo[4,5-c][1,8]naphthyridin-4(5H)-one] |  |  |  | 47.7 | 10 | 33.3 |  |  | 80
O=c1c2c(ncn2Cc2ccc([N+](=O)[O-])cc2)c2cccnc2n1-c1ccccc1 [Compound 42, 3-(4-Nitrophenyl)methyl-5-phenyl-3H-imidazo[4,5-c][1,8]naphthyridin-4(5H)-one] |  |  |  | 35.9 |  | 45.6 |  |  | 100
Cc1ccc(Cn2cnc3c4cccnc4n(-c4ccccc4)c(=O)c32)cc1 [Compound 43, 3-(4-Methylphenyl)methyl-5-phenyl-3H-imidazo[4,5-c][1,8]naphthyridin-4(5H)-one] | 70 | > 100 | > 300 | 39.2 |  | 56.2 |  |  | 
COc1ccc(Cn2cnc3c4cccnc4n(-c4ccccc4)c(=O)c32)cc1 [Compound 45, 3-(4-Methoxyphenyl)methyl-5-phenyl-3H-imidazo[4,5-c][1,8]naphthyridin-4(5H)-one] | 40 |  |  | 37.8 |  | 66.9 |  |  | 
COc1cccc(Cn2cnc3c4cccnc4n(-c4ccccc4)c(=O)c32)c1 [Compound 46, 3-(3-Methoxyphenyl)methyl-5-phenyl-3H-imidazo[4,5-c][1,8]naphthyridin-4(5H)-one] | 10 |  |  |  |  | 43.5 |  |  | 
O=c1c2c(ncn2Cc2cccc([N+](=O)[O-])c2)c2cccnc2n1-c1ccccc1 [Compound 47, 3-(3-Nitrophenyl)methyl-5-phenyl-3H-imidazo[4,5-c][1,8]naphthyridin-4(5H)-one] | 0 | > 100 | > 300 | 33.1 |  | 35.7 |  |  | 
Cc1cccc(-n2c(=O)c3c(ncn3Cc3ccccc3)c3cccnc32)c1 [Compound 58, 5-(3-Methylphenyl)-3-benzyl-3H-imidazo[4,5-c][1,8]naphthyridin-4(5H)-one] | 100 | > 100 | > 300 |  |  | 47 |  | 36.3 | 
O=c1c2c(ncn2Cc2ccccc2)c2cccnc2n1-c1cccc(Cl)c1 [Compound 59, 5-(3-Chlorophenyl)-3-benzyl-3H-imidazo[4,5-c][1,8]naphthyridin-4(5H)-one] | 70 | > 100 | > 300 |  |  | 47.9 |  | 36.4 | 
